Assay results published in patent publication US7317037B2, “Progesterone receptor modulators comprising pyrrole-oxindole derivatives and uses thereof” (Wyeth, priority 2004, dated 2008).

Experiments:
[1] = system: rat uterine decidualization; assay: Rat decidualization assay; assay type: in vivo; conditions: po, read-out: ED50 in the rat decidual assay
Description: B. Progestational and Antiprogestational Activity in Mature Ovariectomized Rats (Rat Decidualization Assay)
This assay is used to evaluate the effect of progestins and antiprogestins on rat uterine decidualization and compare the relative potencies of various test compounds.
Test compounds are dissolved in 100% ethanol and mixed with corn oil (vehicle). Stock solutions of the test compounds in oil (Mazola™) are then prepared by heating (˜80° C.) the mixture to evaporate ethanol. Test compounds are subsequently diluted with 100% corn oil or 10% ethanol in corn oil prior to the treatment of animals. No difference in decidual response is found when these two vehicles are compared. […]
Approximately 24 hr after the third injection, decidualization is induced in one of the uterine horns of anesthetized rats by scratching the antimesometrial luminal epithelium with a blunt 21 G needle. […] Approximately 24 hr following the final treatment, rats are sacrificed by […] and bodyweight measured. […]
In agonist mode, the increase in weight of the decidualized uterine horn is calculated by D-horn/C-horn and logarithmic transformation is used to maximize normality and homogeneity of variance. […] EC50 is calculated from the transformed value. […] IC50 is calculated from the retransformed value. […]

menses induction = assay: Cynomolgus monkey menses induction assay; assay type: in vivo; conditions: 5 mg/kg po
Description: C. Cynomolgus Monkey […] Induction 1. Experimental Design The effects of administered compound(s) in either a single dose or a dose-response paradigm versus an appropriate control (vehicle alone) are determined. When a compound is tested at a single dose, a group of four animals will be used for the dose. In the dose response study, each experiment will involve up to 5 groups of animals (a control group and 4 groups of animals treated with varying doses of the compound). Experimental groups will contain 3-4 animals/group, since this sample size is commonly used in the literature and has been found appropriate based on our own experience. The animals are treated with test compounds once or twice daily for 4 days in the mid-luteal phase of the menstrual cycle to assess the efficacy of the compounds on the reproductive parameters menstruation. 2. Procedures Initially, animals are characterized in terms of their reproductive cyclicity by observing time of menstruation. Only those animals with two consecutive normal cycles are used to evaluate test compounds. […] will be determined by daily gross examination for vaginal bleeding. In each experiment, animals will be treated once or twice daily IV, IM, SC or PO with the test compound. Appropriate vehicles will be determined for each route of administration and will be specified through protocol amendments. […]

[2] = Cynomolgus monkey intravenous pharmacokinetics; conditions: in vivo, cynomolgus monkeys, 0.25 mg/kg i.v.
Description: Therefore from the preceding data it is clear that the R6=fluorine group present in 5-(7-fluoro-3,3-dimethyl-2-oxo-2,3-dihydro-1H-indol-5-yl)-1-methyl-1H-pyrrole-2-carbonitrile dramatically improves the pharmacokinetic performance of the molecule. This improved pharmacokinetic performance translates in the cynomolgus menses induction assay to a dramatic improvement in activity.

AUC(0-inf) ([2]; read-out: exposure (AUC0-∞)): 343 ng·h/mL
half-life ([2]; read-out: mean half life (t1/2) (converted)): 2.1 h
Compound: Cn1c(C#N)ccc1-c1ccc2c(c1)C(C)(C)C(=O)N2 [5-(3,3-Dimethyl-2-oxo-2,3-dihydro-1H-indol-5-yl)-1-methyl-1H-pyrrole-2-carbonitrile, reference compound]
ED50 [1]: 0.2 mg/kg
induction of early onset of menses (menses induction): not active
